Data published in ChEMBL document CHEMBL5465560, “Selectivity Literature for EUbOPEN Chemogenomic Library” (2024).

Assays:
[1] = molecular target: Dual specificity tyrosine-phosphorylation-regulated kinase 1A (Homo sapiens, UniProt Q13627); assay: Selectivity interaction (Kinase panel (DSF assay)) EUB0001558a DYRK1A
[2] = molecular target: Receptor-interacting serine/threonine-protein kinase 2 (Homo sapiens, UniProt O43353); assay: Selectivity interaction (NanoBRET assay (HEK293T cells)) EUB0000229b RIPK2; assay type: cell-based, HEK-293T
[3] = molecular target: T1, Muscle, skeletal receptor tyrosine-protein kinase (Homo sapiens) (UniProt O15146); assay: Selectivity interaction (KinomeScan (DiscoverX)) EUB0000092b MUSK; conditions: at 10 µM
T1 sequence (whole entry): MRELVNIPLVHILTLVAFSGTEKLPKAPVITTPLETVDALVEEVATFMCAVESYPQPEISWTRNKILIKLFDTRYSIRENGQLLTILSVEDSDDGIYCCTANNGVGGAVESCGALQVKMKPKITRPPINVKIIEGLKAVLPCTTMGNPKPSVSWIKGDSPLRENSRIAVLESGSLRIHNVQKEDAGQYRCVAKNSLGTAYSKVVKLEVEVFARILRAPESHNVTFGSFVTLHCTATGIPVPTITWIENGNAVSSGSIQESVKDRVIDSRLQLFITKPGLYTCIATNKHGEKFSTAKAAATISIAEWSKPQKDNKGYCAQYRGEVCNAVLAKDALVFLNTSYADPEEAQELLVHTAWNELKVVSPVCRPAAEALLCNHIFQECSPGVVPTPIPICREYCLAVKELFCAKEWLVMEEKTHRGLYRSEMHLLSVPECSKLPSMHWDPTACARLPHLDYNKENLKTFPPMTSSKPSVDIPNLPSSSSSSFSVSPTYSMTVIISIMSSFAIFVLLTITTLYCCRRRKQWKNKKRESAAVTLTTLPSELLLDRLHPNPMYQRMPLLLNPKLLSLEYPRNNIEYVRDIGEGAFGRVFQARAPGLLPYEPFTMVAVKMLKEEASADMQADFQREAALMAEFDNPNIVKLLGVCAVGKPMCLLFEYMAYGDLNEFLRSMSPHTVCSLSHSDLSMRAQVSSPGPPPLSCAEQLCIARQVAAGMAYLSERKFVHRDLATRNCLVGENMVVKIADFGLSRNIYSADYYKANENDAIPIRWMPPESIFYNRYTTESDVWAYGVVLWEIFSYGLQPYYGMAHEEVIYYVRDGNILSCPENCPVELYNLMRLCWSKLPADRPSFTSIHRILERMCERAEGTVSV

[4] = molecular target: Serine/threonine-protein kinase PLK2 (Homo sapiens, UniProt Q9NYY3); assay: Selectivity interaction (Upstate Kinase Profiler service (Millipore)) EUB0000056c PLK2; conditions: at 1 µM
[5] = molecular target: Ribosomal protein S6 kinase beta-1 (Homo sapiens, UniProt P23443); assay: Selectivity interaction (KinomeScan (DiscoverX)) EUB0000655a RPS6KB1; conditions: at 10 µM
[6] = molecular target: T2, Serine/threonine-protein kinase ULK3 (Homo sapiens) (UniProt Q6PHR2); assay: Selectivity interaction (Kinase panel (KiNativ target engagement assay in Jurkat cells)) EUB0001635a ULK3; assay type: cell-based; conditions: at 1 µM
T2 sequence (whole entry): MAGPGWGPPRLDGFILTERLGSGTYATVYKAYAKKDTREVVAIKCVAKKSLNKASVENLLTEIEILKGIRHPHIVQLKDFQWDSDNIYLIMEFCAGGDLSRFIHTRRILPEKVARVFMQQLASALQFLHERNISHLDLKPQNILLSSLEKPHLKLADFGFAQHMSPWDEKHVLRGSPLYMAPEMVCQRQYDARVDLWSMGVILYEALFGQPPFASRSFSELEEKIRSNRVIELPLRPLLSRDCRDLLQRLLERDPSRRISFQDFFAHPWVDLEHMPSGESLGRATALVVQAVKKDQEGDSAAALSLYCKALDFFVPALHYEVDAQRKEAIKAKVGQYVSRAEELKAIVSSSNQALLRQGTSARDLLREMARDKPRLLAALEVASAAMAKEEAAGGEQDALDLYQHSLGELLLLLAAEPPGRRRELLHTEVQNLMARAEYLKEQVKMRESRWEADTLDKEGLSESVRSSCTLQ

[7] = molecular target: Ribosomal protein S6 kinase alpha-3 (Homo sapiens, UniProt P51812); assay: Selectivity interaction (Kinase panel (KiNativ target engagement assay in Jurkat cells)) EUB0001635a RPS6KA3; assay type: cell-based; conditions: Selectivity number of off-targets 0.0, Selectivity number of targets 233.0, Source Knowledge https://www.sciencedirect.com/science/article/pii/S2451945619300674?via%3Dihub, at 1 µM
[8] = molecular target: Serine/threonine-protein kinase 33 (Homo sapiens) (UniProt Q9BYT3); assay: Selectivity interaction (LanthaScreen Eu Kinase Binding Assay) EUB0001632a STK33; conditions: at 10 µM
[9] = molecular target: Dual specificity protein kinase CLK3 (Homo sapiens, UniProt P49761); assay: Selectivity interaction (Kinase panel (Z-LYTE Assay)) EUB0001632a CLK3; conditions: at 10 µM
[10] = molecular target: Cyclin-dependent kinase 5/CDK5 activator 1 (Homo sapiens) (UniProt Q00535+Q15078); assay: Selectivity interaction (SelectScreen profiling (Invitrogen)) EUB0000607a CDK5; assay type: protein-complex assay; conditions: at 2 µM
[11] = tested on: Tyrosine-protein kinase ABL1 (Homo sapiens), P00519 [Q252H]; assay: Selectivity interaction (KinomeScan (DiscoverX)) EUB0001049a ABL1; conditions: at 1 µM
[12] = molecular target: Tyrosine-protein kinase BTK (Homo sapiens, UniProt Q06187); assay: Selectivity interaction (Ambit KINOMEscan and KiNATiv profiling in Jurkat cells) EUB0000090b BTK; assay type: cell-based; conditions: at 1 µM
Insulin receptor = Insulin receptor (Homo sapiens, UniProt P06213); assay: Selectivity interaction (KinomeScan (DiscoverX)) EUB0001619a INSR; conditions: at 1 µM
Sequence of Insulin receptor (P06213 28-758 limits assumed): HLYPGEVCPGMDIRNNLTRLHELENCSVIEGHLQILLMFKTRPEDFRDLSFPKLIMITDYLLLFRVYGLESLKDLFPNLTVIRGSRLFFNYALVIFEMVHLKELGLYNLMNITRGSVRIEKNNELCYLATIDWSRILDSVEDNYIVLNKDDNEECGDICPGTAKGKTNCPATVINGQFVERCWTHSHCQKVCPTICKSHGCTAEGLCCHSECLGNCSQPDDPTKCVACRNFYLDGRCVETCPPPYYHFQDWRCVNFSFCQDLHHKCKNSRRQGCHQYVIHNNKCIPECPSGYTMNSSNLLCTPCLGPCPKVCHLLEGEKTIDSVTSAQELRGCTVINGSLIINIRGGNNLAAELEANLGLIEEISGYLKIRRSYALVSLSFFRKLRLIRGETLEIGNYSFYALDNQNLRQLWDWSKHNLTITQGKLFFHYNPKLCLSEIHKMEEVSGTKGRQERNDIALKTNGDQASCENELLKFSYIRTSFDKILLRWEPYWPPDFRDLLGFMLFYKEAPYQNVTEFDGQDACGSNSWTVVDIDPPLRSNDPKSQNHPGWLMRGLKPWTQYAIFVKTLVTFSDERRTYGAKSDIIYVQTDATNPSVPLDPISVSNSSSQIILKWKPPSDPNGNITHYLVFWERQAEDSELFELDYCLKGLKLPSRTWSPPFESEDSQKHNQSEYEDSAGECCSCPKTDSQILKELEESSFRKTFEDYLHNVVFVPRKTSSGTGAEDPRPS
Sequence of Insulin receptor (P06213 763-1382 limits assumed): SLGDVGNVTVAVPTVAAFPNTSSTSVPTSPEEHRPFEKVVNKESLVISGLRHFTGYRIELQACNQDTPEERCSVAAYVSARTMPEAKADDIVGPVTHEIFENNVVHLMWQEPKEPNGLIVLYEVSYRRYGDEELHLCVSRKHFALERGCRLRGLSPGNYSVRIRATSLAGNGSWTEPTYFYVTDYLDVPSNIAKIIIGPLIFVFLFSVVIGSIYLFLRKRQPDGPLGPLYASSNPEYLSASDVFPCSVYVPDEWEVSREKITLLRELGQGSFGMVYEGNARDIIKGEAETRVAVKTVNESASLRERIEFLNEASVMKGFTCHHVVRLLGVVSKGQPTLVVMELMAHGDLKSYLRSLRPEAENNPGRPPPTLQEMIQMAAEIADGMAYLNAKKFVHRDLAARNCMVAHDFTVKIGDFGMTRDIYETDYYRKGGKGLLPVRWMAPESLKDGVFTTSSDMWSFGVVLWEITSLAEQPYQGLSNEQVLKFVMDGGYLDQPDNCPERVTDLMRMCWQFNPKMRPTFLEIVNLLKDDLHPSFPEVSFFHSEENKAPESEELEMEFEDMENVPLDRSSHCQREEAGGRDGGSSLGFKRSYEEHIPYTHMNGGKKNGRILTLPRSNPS

Sequence of Ribosomal protein S6 kinase alpha-3 (P51812 whole entry): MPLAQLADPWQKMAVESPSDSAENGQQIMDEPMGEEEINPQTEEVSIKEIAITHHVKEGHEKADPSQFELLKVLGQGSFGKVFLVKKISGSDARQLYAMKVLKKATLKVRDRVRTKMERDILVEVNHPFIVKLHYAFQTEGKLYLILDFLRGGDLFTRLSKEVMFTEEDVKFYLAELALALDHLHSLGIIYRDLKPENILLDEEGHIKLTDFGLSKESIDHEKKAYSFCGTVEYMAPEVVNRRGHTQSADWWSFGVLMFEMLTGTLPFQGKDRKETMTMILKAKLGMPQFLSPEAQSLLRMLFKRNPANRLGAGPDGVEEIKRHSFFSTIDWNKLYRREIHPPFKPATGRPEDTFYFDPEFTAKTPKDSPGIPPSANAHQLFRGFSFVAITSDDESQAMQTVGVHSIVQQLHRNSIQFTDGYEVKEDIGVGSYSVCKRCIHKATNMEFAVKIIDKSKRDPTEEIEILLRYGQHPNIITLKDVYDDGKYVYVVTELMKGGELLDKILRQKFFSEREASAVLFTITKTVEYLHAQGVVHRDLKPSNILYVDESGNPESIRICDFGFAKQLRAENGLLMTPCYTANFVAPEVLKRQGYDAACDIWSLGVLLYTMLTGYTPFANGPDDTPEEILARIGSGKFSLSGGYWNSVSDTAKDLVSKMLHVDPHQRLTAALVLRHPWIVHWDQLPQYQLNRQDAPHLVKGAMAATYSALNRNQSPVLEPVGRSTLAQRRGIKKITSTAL
Sequence of Serine/threonine-protein kinase 33 (Homo sapiens) (Q9BYT3 whole entry, looked up): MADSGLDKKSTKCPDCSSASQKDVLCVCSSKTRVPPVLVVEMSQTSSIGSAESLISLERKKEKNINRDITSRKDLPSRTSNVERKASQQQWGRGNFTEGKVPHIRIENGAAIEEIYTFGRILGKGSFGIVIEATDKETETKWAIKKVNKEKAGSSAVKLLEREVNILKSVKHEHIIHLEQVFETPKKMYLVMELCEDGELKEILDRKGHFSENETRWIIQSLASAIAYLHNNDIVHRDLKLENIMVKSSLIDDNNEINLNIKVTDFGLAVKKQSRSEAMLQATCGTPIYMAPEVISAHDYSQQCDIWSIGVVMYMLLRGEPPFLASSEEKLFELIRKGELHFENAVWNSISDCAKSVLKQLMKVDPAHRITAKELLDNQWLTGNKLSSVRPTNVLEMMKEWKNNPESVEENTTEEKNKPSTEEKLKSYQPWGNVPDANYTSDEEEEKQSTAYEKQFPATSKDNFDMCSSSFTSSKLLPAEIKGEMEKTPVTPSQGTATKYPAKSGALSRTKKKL
Sequence of Ribosomal protein S6 kinase beta-1 (P23443 whole entry, looked up): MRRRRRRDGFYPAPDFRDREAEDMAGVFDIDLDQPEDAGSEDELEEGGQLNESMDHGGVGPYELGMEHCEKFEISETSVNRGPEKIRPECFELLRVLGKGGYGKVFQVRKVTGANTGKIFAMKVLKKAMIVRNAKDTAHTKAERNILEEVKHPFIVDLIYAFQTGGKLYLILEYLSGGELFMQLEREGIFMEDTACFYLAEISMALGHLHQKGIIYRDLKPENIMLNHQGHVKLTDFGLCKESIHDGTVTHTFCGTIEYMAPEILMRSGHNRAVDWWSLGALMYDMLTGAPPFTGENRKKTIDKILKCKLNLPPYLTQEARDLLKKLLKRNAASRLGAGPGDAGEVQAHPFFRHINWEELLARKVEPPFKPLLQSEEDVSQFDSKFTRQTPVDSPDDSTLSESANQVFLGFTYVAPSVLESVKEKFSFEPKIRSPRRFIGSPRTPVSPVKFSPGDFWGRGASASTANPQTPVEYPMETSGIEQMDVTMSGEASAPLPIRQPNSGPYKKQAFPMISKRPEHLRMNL
Sequence of Tyrosine-protein kinase BTK (Q06187 whole entry): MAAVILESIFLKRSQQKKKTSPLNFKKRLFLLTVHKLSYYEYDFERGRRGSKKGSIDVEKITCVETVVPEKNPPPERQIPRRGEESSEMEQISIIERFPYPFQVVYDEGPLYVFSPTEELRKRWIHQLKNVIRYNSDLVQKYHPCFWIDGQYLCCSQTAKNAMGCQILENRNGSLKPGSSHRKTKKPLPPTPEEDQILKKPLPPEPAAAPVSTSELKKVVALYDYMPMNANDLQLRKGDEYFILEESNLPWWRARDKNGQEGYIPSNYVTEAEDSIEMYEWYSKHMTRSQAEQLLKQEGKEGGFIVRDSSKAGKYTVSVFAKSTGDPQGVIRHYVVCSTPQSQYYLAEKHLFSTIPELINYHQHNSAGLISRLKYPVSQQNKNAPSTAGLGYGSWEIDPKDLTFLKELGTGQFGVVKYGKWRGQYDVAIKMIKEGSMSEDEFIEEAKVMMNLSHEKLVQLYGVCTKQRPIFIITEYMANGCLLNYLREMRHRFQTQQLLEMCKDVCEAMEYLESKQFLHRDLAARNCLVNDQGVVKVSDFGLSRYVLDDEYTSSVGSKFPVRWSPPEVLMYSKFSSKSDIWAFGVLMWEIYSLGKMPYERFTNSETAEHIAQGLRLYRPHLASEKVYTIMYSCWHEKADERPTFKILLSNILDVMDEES
Sequence of Receptor-interacting serine/threonine-protein kinase 2 (O43353 whole entry): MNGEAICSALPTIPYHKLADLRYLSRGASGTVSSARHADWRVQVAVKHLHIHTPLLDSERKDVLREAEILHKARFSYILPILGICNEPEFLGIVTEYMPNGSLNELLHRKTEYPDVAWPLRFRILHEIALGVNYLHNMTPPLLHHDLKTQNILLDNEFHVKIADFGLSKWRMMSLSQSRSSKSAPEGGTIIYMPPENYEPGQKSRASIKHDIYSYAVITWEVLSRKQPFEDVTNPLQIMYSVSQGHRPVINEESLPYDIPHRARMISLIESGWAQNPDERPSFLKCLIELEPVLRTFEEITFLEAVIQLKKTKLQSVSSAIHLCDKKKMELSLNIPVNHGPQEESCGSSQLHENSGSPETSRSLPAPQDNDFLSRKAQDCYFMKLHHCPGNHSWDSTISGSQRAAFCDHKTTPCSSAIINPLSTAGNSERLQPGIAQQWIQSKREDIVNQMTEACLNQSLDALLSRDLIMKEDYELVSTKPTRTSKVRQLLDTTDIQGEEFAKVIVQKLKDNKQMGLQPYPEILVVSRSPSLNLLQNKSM
Sequence of Dual specificity protein kinase CLK3 (P49761 whole entry, looked up): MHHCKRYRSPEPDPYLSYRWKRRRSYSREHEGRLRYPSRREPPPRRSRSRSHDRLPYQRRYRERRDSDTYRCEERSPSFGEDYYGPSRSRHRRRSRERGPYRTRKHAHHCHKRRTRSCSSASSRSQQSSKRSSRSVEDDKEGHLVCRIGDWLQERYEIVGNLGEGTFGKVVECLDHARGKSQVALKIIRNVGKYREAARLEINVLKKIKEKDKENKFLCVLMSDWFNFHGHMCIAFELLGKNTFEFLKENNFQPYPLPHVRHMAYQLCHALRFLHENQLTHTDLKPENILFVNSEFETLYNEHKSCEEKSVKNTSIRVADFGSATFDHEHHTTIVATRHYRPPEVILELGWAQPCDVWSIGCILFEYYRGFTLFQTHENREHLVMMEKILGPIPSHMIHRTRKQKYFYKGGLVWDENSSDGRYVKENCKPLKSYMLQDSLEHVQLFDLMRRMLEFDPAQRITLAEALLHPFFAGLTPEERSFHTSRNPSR

## CC(C)(O)[C@H](F)CN1Cc2cc(NC(=O)c3cnn4cccnc34)c(N3CCOCC3)cc2C1=O
[1]
  dTM: 0.2 K

## COc1cc(N(C)c2ccnc3ccc(C(F)(F)F)cc23)cc(OC)c1OC
[2]
  IC50: > 10 µM

## CCC(=O)N1CCN(c2ccc(-n3c(=O)ccc4cnc5ccc(-c6cnc7ccccc7c6)cc5c43)cc2C(F)(F)F)CC1
[3]
  % of control: 100%

## Cc1ccc(-c2ccc3c(ccc4sc5c(c43)NC[C@@H](C)NC5=O)n2)cn1
[4]
  % of inhibition: -19%

## CN(C)CCOc1ccc(-c2nc(-c3ccncc3)c(-c3ccc4c(c3)CC/C4=N\O)[nH]2)cc1
[5]
  % of control: 85%

## C=CC(=O)Nc1ccc(C(=O)Nc2[nH]nc3c2CN(C(=O)N[C@H](CN(C)C)c2ccccc2)C3(C)C)cc1
[6]; Selectivity number of off-targets 0.0, Selectivity number of targets 233.0, Source Knowledge https://www.sciencedirect.com/science/article/pii/S2451945619300674?via%3Dihub
  % of engagement: -7.1%
[6]
  % of engagement: -1.1%
[7]
  % of engagement: -18.2%

## Cn1cc(-n2cnc3c(NCc4nc5cc(Cl)c(Cl)cc5[nH]4)nc(N4CCOCC4)nc32)cn1
[8]
  % of inhibition: -17.6%
[9]
  % of control: 8.16%

## CNC(=O)Nc1ccc(-c2nc(N3CC4CCC(C3)O4)c3cnn(C4CCC5(CC4)OCCO5)c3n2)cc1
[10]
  % of inhibition: -4%

## COc1cc(Nc2nc(C)cc(-c3cnn4nc(OC)ccc34)n2)cc(C(F)(F)F)c1
[11]
  % of control: 80%

## CN(C)C/C=C/C(=O)Nc1ccc(C(=O)N2CCCC(Nc3ncc(Cl)c(-c4c[nH]c5ccccc45)n3)C2)cc1 (centres undefined)
[12]
  % of control: 90%

## N#Cc1cccc(-c2c[nH]c3ncnc(N4CCOCC4)c23)c1
Insulin receptor
  % of control: 100%
